From US20220105183A1, “MICRO-NANO STRUCTURE FORMED BY SELF-ASSEMBLING ORGANIC SMALL MOLECULE COMPOUND AND USE THEREOF” (Qingdao University of Science and Technology, priority 2018, published 2022)

Legend:
HeLa cells = assay: Cell photothermal experiment; type: cell-based
Experimental: HeLa cells were digested from the culture flask with trypsin, centrifuged, added to a DMEM medium containing 10% serum and 1% double antibody, and mixed well. 20 μL of cells were taken and stained with Compound II-1 (20 μM) for 30 minutes. After taking it out, it was centrifuged and rinsed twice with PBS. After centrifuging, 20 μL of culture medium and 20 μL of trypan blue were added. 20 μL was taken from the mixture to the cell count plate and photographed under fluorescence microscope. In the absence of laser irradiation, bright live cells were observed under the microscope, and the cell survival rate was 92%. When irradiated with 808 nm laser for 6 minutes, almost all the blue dead cells were observed under the microscope, and the cell death rate was as high as 100%. HeLa cells were cultured in 96-well plates, 10^4 cells per well, and live/dead staining after 24 h. The cells were irradiated with an 808 nm laser for 6 minutes, and the photographs were observed under a fluorescent microscope. […] It can be seen that the toxicity of the compound itself is extremely small, but its photothermal effect is particularly lethal to cancer cells, and it has bright prospects in the future clinical application of photothermal treatment of cancer. Other compounds of the present invention also have similar photothermal therapeutic effects.

[1] = Photothermal stability, repeated 808 nm irradiation and cooling; type: physicochemical; settings: sample No. 3, 20 μM, 808 nm laser 9 minutes, natural cooling, 5 times
Experimental: We selected sample No. 3 to test the photothermal stability experiment. As shown in the right figure of FIG. 8, sample No. 3 was irradiated with 808 nm laser for 9 minutes and then the temperature increased from room temperature 30° C. to 62° C., and then allowed to naturally cool down to room temperature, and irradiated with 808 nm laser again for 9 minutes, then naturally cooled down, and repeated for 5 times. […] After 9 minutes of irradiation, the temperature was raised by […], and then returned to room temperature.

[2] = Fluorescence imaging and photothermal treatment in sentinel lymphatic metastasis model mice; type: in vivo
Experimental: (§1) Cell preparation: The cells in the culture flask were digested with trypsin and placed in a centrifuge tube for use. The supernatant was discarded by centrifugation and counted. Then a large amount of medium was added and it was placed in a foam box to be taken to the company. The supernatant was removed by centrifugation, and about 3.5 mL of serum-free medium was added. It was prepared for injection.
(§2) After that, small animal fluorescence imaging and photothermal therapy can be performed.
(§3) Fluorescence imaging for the small animal was performed on the established mouse metastasis model. Using tail vein injection and intratumoral injection (FIG. 22), fluorescence detection was performed every 1 hour for a total of 5 hours.
(§4) The mice were treated with photothermal therapy after injection of tumor cells on the right hind foot pad with obvious sentinel lymph nodes (about 20 days). In this experiment, mice were randomly divided into 3 groups, each group 5 mice, saline+laser irradiation control group, intratumoral injection+laser irradiation experimental group and tail vein injection+laser irradiation experimental group, respectively.
(§5) After photothermal treatment of the mice, the mice were photographed and their weights were recorded every 5 days. […] After the mice were stained with ink on the lungs on day 20, the lungs of the mice were photographed.

T4 cells = assay: as above; type: in vivo; settings: for tumor metastasis in the lungs, ink staining: day 20; for temperature at sentinel lymph nodes under laser: 808 nm laser (1.5 W/cm2) 10 minutes
Experimental: as §1, §2, §3, §4, §5

4T1 cells [3] = assay: Photoacoustic imaging in subcutaneous metastasis model mice; type: in vivo, nude mice; settings: 200 μL (300 μmoL) tail vein, multispectral photoacoustic tomography
Experimental: (§6) The left side of 6-week-old female nude mice was injected subcutaneously with […] 4T1 cells to grow the tumor volume to 60 mm^3.
200 μL II-1 (300 μmoL) was injected into the mice of the experimental group through the tail vein. Monitored with multispectral photoacoustic tomography at different times. […] With the increase of time, until 24 hours, there was a photoacoustic signal at the tumor site.

4T1 cells [4] = assay: Fluorescence imaging in subcutaneous metastasis model mice; type: in vivo, nude mice; settings: 200 μL (1 mg/mL) tail vein
Experimental: as §6
In the experimental group, 200 μL of II-1 (1 mg/mL) was injected into the tail vein of mice. After injection, the living imager was used to monitor at different times. […] Then they were dissected, and the heart, liver, spleen, lung, kidney and tumor were imaged by fluorescence. […] This proves that Compound II-1 targets the tumor site very well.

[5] = Photoacoustic imaging test in aqueous solution; type: physicochemical; settings: 5, 10, 20 and 40 μM in water
Experimental: In the experimental group, 2.5, 5, 10 and 20 μL of Compound II-1 (concentrations of 5, 10, 20 and 40 μM, respectively) were respectively added to 1 mL of water, and the test solution was placed in the prosthesis for photoacoustic imaging test.

4T1 cells [6] = assay: Photothermal imaging and photothermal treatment in subcutaneous metastasis model mice; type: in vivo, nude mice
Experimental: In the experimental group, 200 μL of II-1 (300 μmoL) was injected into the mouse through the tail vein, and the tumor site of the mouse was irradiated with an 808 nm laser for 10 minutes, while taking photos with a photothermal imaging instrument.
The nude mice were divided into 4 groups. In the first group, 200 μL of II-1 was injected into the mouse through the tail vein, and the tumor site of the mouse was irradiated with an 808 nm laser for 5 minutes. In the second group, 200 μL of II-1 (300 μmol) was injected, no laser irradiation. In the third group, saline was injected and laser irradiated for 5 minutes. In the fourth group, saline was injected, no laser irradiation. The tumor volume of each group of mice was measured daily with a vernier caliper, and the recording was continued for 30 days.

[7] = Group 1: 200 μL tail vein, 808 nm laser 5 minutes
[8] = experimental group, 20 days after the experiment

CCN1C(=CC=C2CCCC(C=CC3=C(C#N)C(=C(C#N)C#N)OC3(C)C)=C2Cl)C(C)(C)c2ccccc21 [II-1]
dead cells, live/dead staining (HeLa cells; HeLa in 96-well plates, 808 nm laser 6 minutes): 100% | live/dead staining, compound only (HeLa cells; HeLa in 96-well plates, only the compound added, without laser irradiation): the cells were all alive | cell death rate (HeLa cells; HeLa, 20 μM for 30 minutes, 808 nm laser 6 minutes, trypan blue): 100% | cell survival rate (HeLa cells; HeLa, 20 μM for 30 minutes, no laser irradiation, trypan blue): 92% | temperature raised by, every time in 5 repeated irradiations [1]: 25 °C | temperature reached every time in 5 repeated irradiations [1]: at least 55 °C | body weight ([2]; intratumoral injection + laser): stable in a healthy state | body weight ([2]; tail vein injection + laser): decreased on the tenth day | scars at the sentinel lymph nodes over time (T4 cells; intratumoral injection + laser): obviously healed | tumor metastasis in the lungs, ink staining (T4 cells; intratumoral injection + laser): no obvious tumor metastasis | temperature at sentinel lymph nodes under laser (T4 cells; intratumoral injection): significantly higher than that in the saline injection group | entry into the sentinel lymph node, fluorescence (T4 cells; intratumoral injection, detection every 1 hour for 5 hours): can obviously enter the sentinel lymph node of mice | day on which mice died (first) (T4 cells; tail vein injection + laser): 15 days | scars at the sentinel lymph nodes over time (T4 cells; tail vein injection + laser): showed a tendency to heal | tumor metastasis in the lungs, ink staining (T4 cells; tail vein injection + laser): obvious tumor metastasis | temperature at sentinel lymph nodes under laser (T4 cells; tail vein injection): significantly higher than that in the saline injection group | time at which a clear photoacoustic signal was found at the tumor site (4T1 cells [3]): 4 h | time until which there was a photoacoustic signal at the tumor site (4T1 cells [3]): 24 h | whole-body fluorescence distribution (4T1 cells [4]; after 24 hours): all enriched in the tumor site | fluorescence of dissected heart, liver, spleen, lung, kidney and tumor (4T1 cells [4]; dissected after 24 hours): the fluorescence was very strong at tumor site, with weak fluorescence in the liver, and no fluorescence in other parts | abnormalities in nude mice (4T1 cells [4]; within 24 hours): no abnormalities such as spasms and convulsions occurred | photoacoustic signal against concentration [5]: the photoacoustic signal increased with the increase of the concentration of Compound II-1 | wavelength of the strongest photoacoustic signal [5]: 710-750 nm | temperature of tumor site under laser irradiation (4T1 cells [6]; 200 μL (300 μmoL) tail vein, 808 nm laser 10 minutes): 60 °C | day on which the tumor ulcer had completely healed (4T1 cells [6]; [7]): 16 days | tumor after photothermal treatment (4T1 cells [6]; [7]): the tumor disappeared after laser irradiation, and there was no recurrence within 20 days | body weight (4T1 cells [6]; experimental group and control group): no abnormal change in the body weight | H&E staining of lung and liver (4T1 cells [6]; [8]): no obvious damage to the lungs and liver | H&E staining of tumor (4T1 cells [6]; [8]): the tumor cells had undergone apoptosis | growth of tumor volume (4T1 cells [6]; group 2: 200 μL (300 μmol), no laser irradiation (stated for control groups 2, 3 and 4 together), in 20 days): 25 times
